The text below walks through data of ChEMBL document CHEMBL2424656, “Analogues of the Inhoffen-Lythgoe diol with anti-proliferative activity” (Bioorg Med Chem Lett, 2013).

Series [1] addresses T1, Vitamin D3 receptor (Mus musculus) (UniProt P48281).
T1 sequence (whole entry): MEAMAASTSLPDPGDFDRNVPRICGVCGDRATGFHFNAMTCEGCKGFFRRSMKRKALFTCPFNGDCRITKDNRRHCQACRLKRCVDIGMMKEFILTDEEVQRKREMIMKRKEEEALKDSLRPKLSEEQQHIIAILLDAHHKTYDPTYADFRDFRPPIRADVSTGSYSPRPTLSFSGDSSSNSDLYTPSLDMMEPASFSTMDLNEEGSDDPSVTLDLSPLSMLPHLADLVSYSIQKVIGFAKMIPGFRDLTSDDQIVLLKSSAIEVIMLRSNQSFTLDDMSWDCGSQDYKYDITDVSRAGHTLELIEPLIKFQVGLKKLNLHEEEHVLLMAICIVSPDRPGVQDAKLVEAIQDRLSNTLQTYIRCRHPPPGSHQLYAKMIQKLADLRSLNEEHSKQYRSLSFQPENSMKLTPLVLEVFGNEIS
The series is described as follows: Activation of VDR in mouse C3H10T1/2 cells assessed as upregulation of CYP24A1 mRNA expression at 5 uM after 24 hrs by RT-PCR analysis relative to DMSO-treated control. The following applies: C3H 10T1/2. It counts as cell-based.

A short description of series [2]: […] of hedgehog signaling in mouse C3H10T1/2 cells assessed as downregulation of GLI1 mRNA expression at 5 uM after 24 hrs by RT-PCR analysis in presence of oxysterol. The settings on record: C3H 10T1/2. It counts as cell-based.
Series [3] has as its system HT-29. The experiment in a line: Growth inhibition of human HT-29 cells after 72 hrs by MTS-PMS assay. It counts as functional. The settings on record: HT-29, 72 h. (Tetrazolium dyes change colour on reduction, which living cells bring about.)
Series [4] can be described thus: Growth inhibition of human U87MG cells after 72 hrs by MTS-PMS assay. The following applies: U-87 MG. Type of series: functional, U-87MG ATCC.
For series [5], the target named is T1, Vitamin D3 receptor (Mus musculus). The experiment in a line: Activation of VDR in mouse C3H10T1/2 cells assessed as upregulation of CYP24A1 mRNA expression at 1 to 10 uM after 24 hrs by RT-PCR analysis. The following applies: C3H 10T1/2. Type of series: cell-based.
Series [6] in a line: […] of hedgehog signaling in mouse C3H10T1/2 cells assessed as effect on GLI1 mRNA expression at 1 to 10 uM after 24 hrs by RT-PCR analysis in presence of oxysterol. It counts as cell-based. The settings on record: C3H 10T1/2.
The subject of series [7] is HT-29. The series is described as follows: Ratio of GI50 for human U87MG cells to GI50 for human HT-29 cells. It counts as functional.
The nature of series [8]: Cytotoxicity against mouse C3H10T1/2 cells at 10 uM after 24 hrs. It counts as cell-based. The settings on record: c3h 10t1/2, 24 h.

The GI50 is the concentration giving 50% growth inhibition. The low end stands for greater sensitivity of the cells, the high end for lower sensitivity of the cells.

Activity calls are given as the source filed them. No cut-off for these calls is given here.

`C=C1CC[C@H](O)C/C1=C/C=C1\CCC[C@]2(C)[C@@H]([C@H](C)CCCC(C)C)CC[C@@H]12` [CHOLECALCIFEROL]: the fold change (FC) in series [1] worked out at 8000. In series [2], the result was Active. Also, the GI50 with HT-29 [3] was 53.8 µM.
With `C[C@H](CN)[C@H]1CC[C@H]2[C@@H](O)CCC[C@]12C`, the 50% growth inhibitory concentration (GI50) (with HT-29 [3]; in series [4]) was over 100 µM in each case.
For the molecule `C[C@H](COC(=O)c1cccc(O)c1)[C@H]1CC[C@H]2[C@@H](O)CCC[C@]12C`, the 50% growth inhibitory concentration (GI50) with HT-29 [3] worked out at 70.3 µM; in series [4], 76.9 µM.
The like results for `C[C@H](CNC(=O)c1ccccc1O)[C@H]1CC[C@H]2[C@@H](O)CCC[C@]12C` were, in that order, 68.2 µM and over 100 µM.
In the same order, the values of `C[C@H](COC(=O)c1cccc2ccccc12)[C@H]1CC[C@H]2[C@@H](O)CCC[C@]12C` are 35.3 µM and 39.2 µM.
In the same order, the values of `C[C@H](COC(=O)c1ccc2ccccc2c1)[C@H]1CC[C@H]2[C@@H](O)CCC[C@]12C` are 19.8 µM and 51.3 µM.
On to `C[C@H](COC(=O)c1ccncc1)[C@H]1CC[C@H]2[C@@H](O)CCC[C@]12C`, for which the GI50 (in the series on HT-29 [3]; in series [4]) was over 100 µM in each case.
On to `C[C@H](COC(=O)C1CCCC1)[C@H]1CC[C@H]2[C@@H](O)CCC[C@]12C`, for which the GI50 came to 22.1 µM with HT-29 [3] and 21.7 µM in series [4].
In the same order, the values of `C[C@H](COC(=O)c1ccccc1)[C@H]1CC[C@H]2[C@@H](OC(=O)c3ccccc3)CCC[C@]12C` are over 100 µM and over 100 µM.
As for `C[C@H](COC(=O)c1cccc(Cl)c1)[C@H]1CC[C@H]2[C@@H](O)CCC[C@]12C`, the GI50 is 26.2 µM in the series with HT-29 [3] and 69 µM in series [4].
In the same order, the values of `C[C@H](COC(=O)c1ccco1)[C@H]1CC[C@H]2[C@@H](O)CCC[C@]12C` are over 100 µM and 79.1 µM.
Take `C[C@H](COC(=O)c1ccccc1)[C@H]1CC[C@H]2[C@@H](O)CCC[C@]12C`: the outcome in series [5] was inactive. For the same molecule, the figures for the GI50 (in the series with HT-29 [3]; in series [4]) were 22.6 µM and 24.6 µM, respectively.
On to `C[C@H](COC(=O)C1CCCCC1)[C@H]1CC[C@H]2[C@@H](O)CCC[C@]12C`, for which the outcome in series [5] and in series [6] was inactive. Moreover, the results for the concentration for 50% growth inhibition (GI50) (in the series with HT-29 [3]; in series [4]) were 15.2 µM and 11.2 µM, respectively.
Consider `C[C@H](COC(=O)c1ccc(O)cc1)[C@H]1CC[C@H]2[C@@H](O)CCC[C@]12C`, for which the values for the GI50 (in the series with HT-29 [3]; in series [4]) were 41 µM and 67 µM, respectively.
The like results for `C[C@H](CNC(=O)C1CCCCC1)[C@H]1CC[C@H]2[C@@H](O)CCC[C@]12C` were, in that order, 84.1 µM and over 100 µM.
Regarding `C[C@H](COC(=O)c1ccc(Cl)cc1)[C@H]1CC[C@H]2[C@@H](O)CCC[C@]12C`, the RatioGI50 with HT-29 [7] stood at 2. Besides, the GI50 in the series on HT-29 [3] came out at 15.9 µM; in series [4], 31.4 µM.
With `CC(C)CC(=O)OC[C@@H](C)[C@H]1CC[C@H]2[C@@H](O)CCC[C@]12C`, the GI50 came out at 47.5 µM with HT-29 [3] and 56 µM in series [4].
In the same order, the values of `COc1ccccc1C(=O)OC[C@@H](C)[C@H]1CC[C@H]2[C@@H](O)CCC[C@]12C` are 35.7 µM and 56 µM.
In the same order, the values of `C[C@H](COC(=O)C1CC1)[C@H]1CC[C@H]2[C@@H](O)CCC[C@]12C` are 82.6 µM and over 100 µM.
As to `C[C@H](COC(=O)c1ccccc1O)[C@H]1CC[C@H]2[C@@H](O)CCC[C@]12C`, the Activity entry in series [8] is listed as “Toxic”. For the same molecule, the result in series [5] and in series [6] was inactive. For the same molecule, the results for the GI50 (in the series with HT-29 [3]; in series [4]) were 14.1 µM and 18.8 µM, respectively.
For the molecule `C[C@H](COC(=O)c1cccnc1)[C@H]1CC[C@H]2[C@@H](O)CCC[C@]12C`, the 50% growth inhibitory concentration (GI50) was 95.2 µM in the series on HT-29 [3] and over 100 µM in series [4].
On to `C[C@H](COC(=O)C1CCC1)[C@H]1CC[C@H]2[C@@H](O)CCC[C@]12C`, for which the GI50 stood at 27 µM in the series with HT-29 [3] and 27.1 µM in series [4].
In the same order, the values of `C[C@H](COC(=O)c1ccccc1Cl)[C@H]1CC[C@H]2[C@@H](O)CCC[C@]12C` are 14.4 µM and 46.8 µM.
In the same order, the values of `C[C@H](COC(=O)c1ccccn1)[C@H]1CC[C@H]2[C@@H](O)CCC[C@]12C` are over 100 µM and over 100 µM.
In the same order, the values of `COc1cccc(C(=O)OC[C@@H](C)[C@H]2CC[C@H]3[C@@H](O)CCC[C@]23C)c1` are 23.7 µM and 15.9 µM.
`C[C@H](COC(=O)C(C)(C)C)[C@H]1CC[C@H]2[C@@H](O)CCC[C@]12C`: the result in series [5] and in series [6] was inactive. Further, the concentration for 50% growth inhibition (GI50) in the series with HT-29 [3] came out at 11.9 µM; in series [4], 17.1 µM.
Regarding `C[C@H](CNC(=O)c1ccc(Cl)cc1)[C@H]1CC[C@H]2[C@@H](O)CCC[C@]12C`, the GI50 was found to be 32.3 µM in the series with HT-29 [3] and 42.9 µM in series [4].
On to `COc1ccc(C(=O)OC[C@@H](C)[C@H]2CC[C@H]3[C@@H](O)CCC[C@]23C)cc1`, for which the GI50 turned out to be 39.8 µM with HT-29 [3] and 33.1 µM in series [4].
